Reference: ChEMBL document CHEMBL1127722, “Aminophosphonic acid containing inhibitors of human collagenase: modification of the P1 residue” (Bioorg Med Chem Lett, 1994)
pIC50: −log10 of the molar value.

Target: T1, Interstitial collagenase (Homo sapiens, UniProt P03956)
T1 sequence (P03956 whole entry): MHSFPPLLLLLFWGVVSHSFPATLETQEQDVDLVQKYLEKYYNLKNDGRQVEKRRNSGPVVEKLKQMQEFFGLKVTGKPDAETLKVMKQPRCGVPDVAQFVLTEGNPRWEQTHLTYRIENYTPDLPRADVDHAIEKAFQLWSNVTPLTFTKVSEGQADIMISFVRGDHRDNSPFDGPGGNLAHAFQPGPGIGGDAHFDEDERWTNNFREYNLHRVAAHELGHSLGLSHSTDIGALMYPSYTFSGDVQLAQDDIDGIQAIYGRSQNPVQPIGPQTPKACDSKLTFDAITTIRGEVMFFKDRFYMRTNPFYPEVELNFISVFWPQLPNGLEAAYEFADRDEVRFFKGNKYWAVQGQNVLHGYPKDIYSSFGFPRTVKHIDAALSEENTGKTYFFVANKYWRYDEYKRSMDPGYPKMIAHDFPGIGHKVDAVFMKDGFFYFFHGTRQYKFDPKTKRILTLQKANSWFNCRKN
Assay: Inhibition of human fibroblast collagenase

Row | pIC50 | Structure (SMILES)
1 | 6.44 | CNC(=O)[C@H](Cc1ccccc1)NC(=O)[C@H](CC(C)C)NC(CCN1C(=O)c2ccccc2C1=O)P(=O)(O)O (stereo not given in full)
2 | 4.43 | CNC(=O)[C@H](CC(C)C)NC(=O)[C@H](CC(C)C)CP(=O)(O)CNC(C)=O
3 | 7.70 | CNC(=O)[C@H](Cc1ccccc1)NC(=O)[C@H](CC(C)C)N[C@@H](CCN1C(=O)c2cccc3c(Br)ccc(c23)C1=O)P(=O)(O)O
4 | 5.67 | CNC(=O)[C@H](Cc1ccccc1)NC(=O)[C@H](CC(C)C)NC(CN1C(=O)c2cccc3cccc(c23)C1=O)P(=O)(O)O (stereo not given in full)
5 | 6.14 | CNC(=O)[C@H](Cc1ccccc1)NC(=O)[C@H](CC(C)C)NC(CCCN1C(=O)c2cccc3cccc(c23)C1=O)P(=O)(O)O (stereo not given in full)
6 | 6.82 | CNC(=O)[C@H](Cc1ccccc1)NC(=O)[C@H](CC(C)C)N[C@H](CCN1C(=O)c2cccc3cccc(c23)C1=O)P(=O)(O)O
7 | < 4.00 | CNC(=O)[C@H](Cc1ccccc1)NC(=O)[C@H](CC(C)C)NC(CCN1C(=O)c2cccc3cccc(c23)C1=O)[PH](=O)O (stereo not given in full)
8 | 6.72 | CNC(=O)[C@H](Cc1ccccc1)NC(=O)[C@H](CC(C)C)N[C@@H](CCN1C(=O)c2ccccc2C1=O)P(=O)(O)O
9 | 5.79 | CNC(=O)[C@H](Cc1ccccc1)NC(=O)[C@H](CC(C)C)N[C@H](CCN1C(=O)c2cccc3c(Br)ccc(c23)C1=O)P(=O)(O)O
10 | 7.52 | CNC(=O)[C@H](Cc1ccccc1)NC(=O)[C@H](CC(C)C)N[C@@H](CCN1C(=O)c2cccc3cccc(c23)C1=O)P(=O)(O)O
